From US9655909B2, “Personalized medicine for the prediction of therapy targeting the hedgehog pathway” (Board of Regents, The University of Texas System, priority 2012, dated 2017)

Assays:
Gli1 [1] = test: Western blot of Gli1 in breast cancer cell lines; type: cell-based; settings: for Gli1 protein levels: BT549 and Hs578t breast cancer cells
Method: FIG. 21. […] Western blot showing the effect of PF-4708671 on S6 phosphorylation, S6K1 phosphorylation, and Gli1 expression in the BT549 cell line. Tubulin was detected as a loading control. Lane labels indicate the micromolar concentration of PF-4708671 used.
FIG. 22. […] DMSO was used as a negative control.
A western blot was performed to show the effect of PF-4708671 on S6 phosphorylation, S6K1 phosphorylation, and Gli1 expression in the BT549 cell line (FIG. 21).

[2] = tested on: subcutaneously inoculated tumors from BE3 cells; test: In vivo combination therapy of subcutaneous BE3 tumors; design: species or system nude mice
From the text: FIG. 7A. […] FIG. 7B. […] Error bars represent SD (n=3). FIG. 7C. […] FIG. 7G.

[3] = tested on: EAC cell lines and BE3 Gli1 stable clones; test: IC50 evaluation for cyclopamine and GDC-0449 (cell growth); type: cell-based, human; settings: for resistance of BE3/Gli1 under TNFα treatment: TNFα 5 ng/mL; for efficacy in the EAC cell lines with rapamycin treatment: rapamycin 10 nM pre-treatment
Method: FIGS. 7A-7G. […] FIG. 7A. The expression of activated SHH (SHH-N) in EAC cell lines and the cell culture medium. FIG. 7B. The mRNA levels of Gli1 target genes in EAC cell lines with or without SHH treatment (1 μg/mL). The mRNA levels of Gli1 target genes are normalized to ACTIN. Error bars represent SD (n=3). FIG. 7C. […] Error bars represent SD (n=4). FIG. 7D. […] Error bars represent SD (n=4). FIG. 7E. […] Error bars represent SD (n=4). FIG. 7F. […] Error bars represent SD (n=4). FIG. 7G. In vivo combination therapy for subcutaneously inoculated tumors from BE3 cells using GDC-0449 (50 mg/kg) or RAD001 (10 mg/kg). One million cells were subcutaneously injected into the right flank of nude mice and the tumor cells were allowed to grow for 10 days (the arrow) before initiation of drug treatment. The vehicle, GDC-0449, RAD001, or combination of GDC-0449 and RAD001 were orally administrated, qd. The tumor volume measured and calculated using the formula: l×w^2, where l is the longest diameter and w is the shortest diameter. Error bars represent SD (n=5).
The concentrations required to inhibit cell growth by 50% (IC50) were calculated from survival curves.

[4] = tested on: Gli-dependent luciferase reporter; test: Gli-dependent luciferase reporter assay in EAC cell lines; type: cell-based, human
Method: Because Gli protein activity is a useful readout for the HH pathway (Jiang and Hui, 2008), the inventors employed a Gli-dependent luciferase reporter system (Sasaki et al., 1997) to evaluate the influence of TNFα on the HH pathway in three EAC cell lines, BE3, SKGT-4, and OE33 (Boonstra et al., 2010). […] Then, the inventors compared the activity of HH pathway in EAC cells stimulated by SHH or TNFα.
Cells were seeded in six-well plates and transfected with GliBS or mGliBS combined with CMV-Renilla vector as an internal standard. After overnight (12-16 hr) transfection, the cells were used for further experiments. After treatment, the cells were rinsed with PBS and subjected to luciferase assay using a dual-luciferase reporter assay system (Promega) based on the manufacturer's instruction.

Gli1 [5] = test: Gli1 nuclear accumulation (cell fractionation Western blot, immunofluorescence) in BE3 cells; type: cell-based, human; settings: TNFα 5 ng/mL alone
Method: FIGS. 1A-1E. TNFα regulates Gli1 transcriptional activity. FIG. 1A. Luciferase assay for Gli transcriptional activity in esophageal adenocarcinoma (EAC) cell lines with or without TNFα (5 ng/mL) stimulation. The EAC cells were transfected using GliBS-Luciferase or mGliBS-Luciferase with CMV-Renilla at a 10:1 ratio, serum-starved overnight, and then treated with TNFα for 24 hr. GliBS is a Gli-responsive reporter, and mGliBS is a Gli-unresponsive reporter. Error bars represent SD (n=5). FIG. 1B. The mRNA levels of Gli1 target genes in the EAC cell lines with or without TNFα (5 ng/mL) stimulation were examined by real-time PCR and normalized to the mRNA level of ACTIN. Error bars represent SD (n=4). FIG. 1C. […] FIG. 1D. […] Then, the cells were lysed for cell fractionation followed by Western blotting. Lamin B and tubulin were used as markers for the nucleus and the cytoplasm, respectively. FIG. 1E. Immunofluorescent analysis of Gli1 in BE3 cells treated with TNFα (5 ng/mL) alone or co-treated with TNFα and rapamycin (50 nM) for the indicated time course. Scale bar=100 μm for original picture and 25 μm for inset. Dapi was used to stain nuclei.
Cellular fractionation was performed as described previously (Lin et al., 2001). Briefly, cells were lysed in the lysis buffer (20 mM HEPES, pH 7.0, 10 mM KCl, 2 mM MgCl2, 0.5% NP-40, 1 mM Na3VO4, 10 mM NaF, 1 mM PMSF, 2 μg/mL aprotinin). […]

[6] = tested on: CF-Pac-1 and AsPC-1 stable clones; test: MTT assay of PDAC Gli1 stable clones with GEM; type: cell-based
From the text: FIGS. 19A-C. Gli1 is negatively correlated with sensitivity of pancreatic cancer cells to GEM. Gli1 knock-down sensitized the response of PDAC cells to gemcitabine (GEM), but overexpression of Gli1 protected PDAC cells from GEM. FIG. 19A. Western blot of Gli1 in stable clones of AsPC-1 and CF-Pac-1 cells with Gli1 knocked down or ectopic expression. FIG. 19B. MTT assay of CF-Pac-1 stable clones with GEM. FIG. 19C. MTT assay of AsPC-1 stable clones with GEM.
Knock-down of Gli1 in PDAC cells sensitized the cells to gemcitabine (GEM), and overexpression of Gli1 protected PDAC cells from GEM. The inventor's performed a western blot for Gli1 in stable clones of AsPC-1 and CF-Pac-1 cells with Gli1 knocked down or ectopically expressed (FIG. 19A). MTT assays were performed on CF-Pac-1 stable clones (FIG. 19B) and AsPC-1 stable clones (FIG. 19C) with GEM. Gli1 expression correlated negatively with sensitivity of pancreatic cancer cells to GEM.

NC1(c2ccc(-c3nc4ccn5c(=O)[nH]nc5c4cc3-c3ccccc3)cc2)CCC1 [MK]
Gli1 protein levels (Gli1 [1]): decreased Gli1 protein levels

CCc1cncnc1N1CCN(Cc2nc3ccc(C(F)(F)F)cc3[nH]2)CC1 [PF-4708671]
Gli1 expression (Gli1 [1]; BT549 cell line): decreased

CO[C@H]1C[C@@H]2CC[C@@H](C)[C@@](O)(O2)C(=O)C(=O)N2CCCC[C@H]2C(=O)O[C@H]([C@H](C)C[C@@H]2CC[C@@H](OCCO)[C@H](OC)C2)CC(=O)[C@H](C)/C=C(\C)[C@@H](O)[C@@H](OC)C(=O)[C@H](C)C[C@H](C)/C=C/C=C/C=C/1C [RAD001, everolimus]
tumor-inhibitory effect of GDC-0449 when combined with RAD001 ([2]; GDC-0449 50 mg/kg and RAD001 10 mg/kg qd oral): enhanced the tumor-inhibitory effect | tumor growth ([2]; RAD001 10 mg/kg qd oral, alone, low dose): did not inhibit tumor growth | Gli1 protein levels (Gli1 [1]): decreased Gli1 protein levels

CC1=C2C[C@H]3[C@@H](CC=C4C[C@@H](O)CC[C@@]43C)[C@@H]2CC[C@]12O[C@@H]1C[C@H](C)CN[C@H]1[C@H]2C [cyclopamine]
resistance of BE3/Gli1 under TNFα treatment [3]: increased the resistance | efficacy in the EAC cell lines with rapamycin treatment [3]: enhanced the efficacy

TNFα
activity of HH pathway in EAC cells ([4]; Gli reporter, stimulation by SHH or TNFα, FIG. 9A): increased the activity of HH pathway | Gli1 nuclear accumulation (Gli1 [5]): rapidly induced Gli1 nuclear accumulation

Nc1ccn([C@@H]2O[C@H](CO)[C@@H](O)C2(F)F)c(=O)n1 [gemcitabine]
response of PDAC cells with knock-down of Gli1 [6]: sensitized | response of PDAC cells with overexpression of Gli1 [6]: protected

CS(=O)(=O)c1ccc(C(=O)Nc2ccc(Cl)c(-c3ccccn3)c2)c(Cl)c1 [GDC-0449]
constitutive activation of HH pathway in EAC cell lines ([4]; Gli reporter, EAC cell lines, FIG. 9A): can be inhibited | mTOR/S6K1-mediated Gli1 activation ([4]; SMO inhibitors): had little effects | IC50 value in BE3/S84E compared with BE3/EV, BE3/Gli1 and BE3/S84A ([3]; 48 hr, Gli1 stable clones): much higher | resistance of BE3/Gli1 under TNFα treatment [3]: increased the resistance | efficacy in the EAC cell lines with rapamycin treatment [3]: enhanced the efficacy | EAC tumor size ([2]; GDC-0449 50 mg/kg qd oral, alone): decreased the EAC tumor size
